Patent US20250042918A1, “COMPOUNDS” (Fundación Del Sector Públlco Estatal Centro Nacional De …, priority 2021, published 2025)

Experiments:
[1] = test system: Naïve CD4+ T cells, Th1 cells; assay: CD4+ T cell differentiation under Th1 conditions (IFNγ, ELISA and FACS); assay type: cell-based, mice
Description: (§1) Naïve CD4^+ T cells were purified from mice spleens and lymph nodes using positive selection by magnetic beads (CD4 L3T4 Kit, Miltenyi Biotec, UK). The purified T cells were activated by plate-bound αCD3ε (1 μg/ml; 2C11) and αCD28 (3 μg/ml; 37.51) in the presence or absence of the compound of Example 1 or Cyclosporin A (Sigma Aldrich), and cultured for 72 hrs under Th1 conditions (IL-12 [20 ng/ml]+αIL-4 (11B1) [10 μg/ml]), 72 hrs under Th17 conditions (αIFNγ [10 μg/ml]+αIL-4 [5 μg/ml]+IL-6 [[…]]+TGFβ(5 ng/ml)), and 96 hrs under iTreg conditions (TGFβ (5 ng/ml)) at 37° C.
ELISA kits for mouse IFNγ and IL-17a were purchased from eBioscience (Thermo Fisher, UK) and performed in accordance to manufacturer's instructions using Corning® High Binding ELISA plates (Merck, CLS9018). All ELISAs were analysed using a Synergy MX microplate reader (BioTek).
Intracellular protein expression was evaluated by first restimulating the cells with phorbol-12-myristate 13-acetate (PMA)(10 ng/ml) (Sigma Aldrich), ionomycin (1 μg/ml) (Sigma Aldrich) and Brefeldin A (5 μg/ml) (eBioscience) for 4-6 hours at 37° C. […] Fc block (93) and all fluorescence dye labelled antibodies used αCD4 (GK1.5), αIFNγ (XMG1.2), αIL-17a (17B7), αFOXP3 (NRRF-30; FJK-16S) were purchased from eBiosciences (Thermo Fisher, UK). […]

[2] = test system: Naïve CD4+ T cells, iTreg cells; assay: CD4+ T cell differentiation under iTreg conditions (FoxP3, FACS); assay type: cell-based, mice; settings: 12.5 nM
Description: as §1
Intracellular protein expression was evaluated by first restimulating the cells with phorbol-12-myristate 13-acetate (PMA)(10 ng/ml) (Sigma Aldrich), ionomycin (1 μg/ml) (Sigma Aldrich) and Brefeldin A (5 μg/ml) (eBioscience) for 4-6 hours at 37° C. […] Fc block (93) and all fluorescence dye labelled antibodies used αCD4 (GK1.5), αIFNγ (XMG1.2), αIL-17a (17B7), αFOXP3 (NRRF-30; FJK-16S) were purchased from eBiosciences (Thermo Fisher, UK). Multi-parameter analysis was performed on an LSR/Fortessa (Becton Dickinson Biosciences (BD)) and analysed using FlowJo software (Tree Star).

MDA-MB-361 = assay: In vitro potency against breast cancer cell lines (CellTiter Glo); assay type: cell-based; settings: Homo sapiens, MDA-MB-361, 72 h; read-out: absolute IC50 MDA-MB-361
Description: (§2) To prepare the complete medium FBS and appropriate additives were added according to the information sheet provided by the vendor and mixed gently. The cell name and complete medium and passage number marked on the flask were checked, and the culture medium removed and discarded using a vacuum pump. […] 3.0 ml of Trypsin-EDTA solution was added to the flask and the cells observed under an inverted microscope until cell layer is dispersed. 8.0 ml of complete growth medium was added and the cells aspirated by gently pipetting. The cell suspension was transferred to a centrifuge tube and centrifuged at 800-1000 rpm for 3-5 minutes. The supernatant was discarded using a vacuum pump, and an appropriate volume of complete medium added. The cell pellet was suspended by gently pipetting, and the cell numbers counted with Vi-cell XR and the cells adjusted to appropriate density. 100 μL of cell suspension to 96-well opaque-walled clear bottom plates was added according to the planned plate layout and the plates placed in the CO2 incubator overnight.
(§3) c. […] Meanwhile the day 0 plate was measured by Cell TiterGlo as listed below.
(§4) d. Cells were incubated with the compounds for 72 h at 5% CO2, 37° C.
(§5) The CellTiter-Glo buffer was thawed and equilibrated to room temperature prior to use. The lyophilized CellTiter-Glo substrate was equilibrated to room temperature prior to use. The appropriate volume of CellTiter-Glo buffer was transferred into the amber bottle containing CellTiter-Glo substrate to reconstitute the lyophilized enzyme/substrate mixture, thereby forming the CellTiter-Glo reagent. Mixing was carried out by gently vortexing, swirling or by inverting the contents to obtain a homogeneous solution, the CellTiter-Glo substrate going into solution easily in less than one minute.
(§6) The plate and its contents were equilibrated to room temperature for approximately 30 minutes, after which 100 μL of CellTiter-Glo reagent was added to the assay plate by Multidrop Combi instrument and the contents mixed for 10 minutes on an orbital shaker to induce cell lysis. The plate was allowed to incubate at room temperature for 10 minutes to stabilize luminescent signal and the clear bottom pasted with white back seal and the luminescence recorded with Enspire with the settings: Luminescence, measurement time 0.1 ms.

HCC1954 = assay: as above; assay type: cell-based; settings: Homo sapiens, HCC1954, 72 h; read-out: absolute IC50 HCC1954
Description: as §2, §3, §4, §5, §6

T-47D = assay: as above; assay type: cell-based; settings: Homo sapiens, T47D, 72 h; read-out: absolute IC50 T-47D
Description: as §2, §3, §4, §5, §6

HCC1143 = assay: as above; assay type: cell-based; settings: Homo sapiens, HCC1143, 72 h; read-out: absolute IC50 HCC1143
Description: as §2, §3, §4, §5, §6

HCC38 = assay: as above; assay type: cell-based; settings: Homo sapiens, HCC38, 72 h; read-out: absolute IC50 HCC38
Description: as §2, §3, §4, §5, §6

BT-474 = assay: as above; assay type: cell-based; settings: Homo sapiens, BT-474, 72 h; read-out: absolute IC50 BT-474
Description: as §2, §3, §4, §5, §6

- IC50 (MDA-MB-361): 9 µM
- IC50 (HCC1954): 8.04 µM
- IC50 (T-47D): 6.19 µM
- IC50 (HCC1143): 5.56 µM
- IC50 (HCC38): 5.56 µM
- IC50 (BT-474): 7.77 µM
Compound: CN1CCOc2c1c(N[C@H]1CC[C@@](C)(O)CC1)nn1c(-c3cccc(OC(F)(F)F)c3)nnc21 [Example 1, 1-Methyl-4-[6-methyl-3-(3-trifluoromethoxy-phenyl)-7,8-dihydro-6H-9-oxa-1,2,3a,4,6-pentaaza-cyclopenta[a]naphthalen-5-ylamino]-cyclohexanol]
- pro-inflammatory Th1 responses ([1]; 12.5 nM, 72 hrs Th1 conditions): significant suppression
- Differentiation of Th1 cells in vitro as determined by the secretion of IFNγ ([1]; across a range of concentrations, ELISA and FACS): inhibited
- generation of immunoregulatory iTreg cells [2]: enhancing the generation
- expression of the transcription factor FoxP3 ([2]; 96 hrs iTreg conditions, FACS): significantly increased expression
